Data taken from patent US20020049151A1, “Therapeutic approaches to diseases by suppression of the NURR subfamily of nuclear transcription factors” (priority 2000, published 2002).
Entries after “also recorded” stand apart in the source; their conditions may differ.

Assays:
Assay type in all cases: cell-based, human
[1] = test system: NURR1 mRNA; experiment: Northern blot of NURR1 mRNA in primary synoviocytes; settings: for NURR1 mRNA levels after stimulation: 25 μM forskolin, 20 ng/ml PMA, 10 ng/ml TNFα, IL-1β, IL-6, 1 μM PGE2, CRH
Procedure: Regulation of gene expression by the protein kinase A and C pathways represent important signaling events in RA synoviocytes (Ben-Av et al., 1995; Crofford et al., 1994; Firestein and Manning, 1999). […] To investigate the involvement of the protein kinase C signaling pathways in NURR regulation, synoviocytes were treated with phorbal myristic acetate (PMA). […] In contrast, dexamethasone had little effect on forskolin- or PMA-induced NUR77 levels.
(§1) In FIG. 4 total RNA was extracted and northern blot analysis was performed. Filters were hybridized with a cDNA for NURR1 or NUR77 and also with GAPDH to control for loading and transfer. Synovial explants were left untreated [C] or incubated with 10^−8M CRH for the indicated times. (FIG. 4A) Confluent monolayers of primary synoviocytes were left untreated [C] or pretreated with 10^−8M dexamethasone (DEX) for 2 h prior to the addition of 25μM forskolin (FOR) or 20 ng/ml of phorbal myristic acetate (PMA). (FIG. 4B)
Therefore the pathological importance of the NURR transcription factors in inflammatory joint disease was further examined by determining the ability of pro-inflammatory agonists to regulate NURR transcript levels in primary synoviocytes and synovium explant tissue (FIG. 6).
(§2) For FIG. 6 each membrane was reprobed with a GAPDH cDNA to control for loading and transfer. NURR1 mRNA levels were measured by northern analysis using total RNA extracted from synoviocytes left untreated [C] or cultured for the time indicated with (A) TNFα (10 ng/ml) in the presence or absence of pre-treatment with 10^−8M dexamethasone (DEX). (B) IL-1β(10 ng/ml) in the presence or absence of pretreatment with 2 μM indomethacin (INDO) or 10^−8M DEX. (C) or synovial explants cultured with IL-6 (10 ng/ml). (D) 1 μM PGE2. (E) 25 μM forskolin (FOR) or […] for 1h in the absence or presence of 5 µg/ml cycloheximide (CHX).
(§3) Northern analysis of primary RA synoviocytes were untreated (lane 1) or treated for 1 hour with TNFα (lane 2), IL-1β (lane 3), and PGE2 (lane 4). TNFα and IL-1β were used at a concentration of 10 ng/mL and PGE2 was at a concentration of 10^-6 M.
(§4) Total RNA was isolated from cultured primary synoviocytes or synovial explants. RNA was quantitated by UV absorption and 10 μg of total RNA were electrophoresed on a standard northern gel and transferred to nylon membrane (BioRad, Richmond, Calif.). NURR1 and NUR77 cDNA probes (Murphy and Conneely, 1997), spanning the amino terminal region to avoid cross-hybridization, were radiolabeled to a high specific activity using [α-^32P] dCTP and a random primer labeling system (Promega, Madison, Wis.). Blots were exposed to film at −80° C. using intensifying screens and autoradiographic intensity was quantitated using an imaging densitometer.

[2] = test system: NOR1 mRNA; experiment: Northern analysis of NOR1 mRNA in primary RA synoviocytes; settings: 1 hour, TNFα 10 ng/mL, PGE2 10^-6 M, vs untreated
Procedure: The pathological importance of the NURR transcription factors in inflammatory joint disease was further examined by determining the ability of proinflammatory agonists to regulate NOR1 transcript levels in primary synoviocytes. (FIG. 14). Expression levels of NOR1 and NURR1 mRNA increased compared to the untreated synoviocytes upon treatment with TNFα.
as §3, §4

[3] = test system: CRH NBRE; experiment: EMSA of synoviocyte nuclear extracts with CRH NBRE; settings: synoviocytes stimulated 1 h; 25 μM forskolin, 10 ng/ml TNFα, IL-1β or PGE2
Procedure: To analyze the effects of cytokines on the ability of NURR1 to bind DNA, EMSA was performed to examine the binding properties of NURR1 to the consensus sequence (NBRE) in the human CRH promoter. […] Binding of the larger protein complex, and to a lesser extent the smaller complex, was inhibited by 50× molar excess of unlabeled homologous oligonucleotide.
Nuclear extracts from untreated, 25 μM forskolin (FOR) or lOng/ml TNFα treated synoviocytes (1 h) were compared for increased binding to the α^32 P-labeled CRH NBRE. DNA-protein interactions were assayed in the presence of 50× molar excess of homologous oligonucleotide or NURR1 specific antiserum (NURR1 Ab).
Nuclear protein extracts were prepared as previously described (Murphy and Conneely, 1997). For the EMSAs, 1 μg of nuclear extract was incubated for 20 mins in the presence of 20 mM Hepes (pH 7.9), 5 mM MgCl2, 20% glycerol, 100 mM KCL, 0.2 mM EDTA, 8% Ficoll, […], 500 ng/μl poly (deoxyinosinicdeoxycytidylic) acid, 50 mM dithiothreitol (DTT) and [α-^32P]-dCTP labeled doublestranded oligonucleotide. For supershifts experiments, antibodies to NURR1 (Santa Cruz Biotechnology, Santa Cruz, Calif.) were added following the initial 20-minute incubation, then incubated for an additional 20 minutes. The samples were electrophoresed through a 5.5% non-denaturing polyacrylamide gel in 0.5× TrisBorate-EDTA (TBE) buffer. For competition studies, the reaction was performed as described with the indicated concentrations of unlabeled probe. The oligonucleotide CRH NBRE 5′-[…]-3′ (SEQ ID NO:152) was used in the mobility shift assay.

[4] = test system: NURR1 mRNA; experiment: Northern blot of NURR1 mRNA in synovium explants; settings: RA and PsA synovium explants; CRH 10^−8 M; IL-6 10 ng/ml
Procedure: To determine whether the NURR subfamily contribute to CRH signaling in a pathological context, freshly excised RA (FIG. 4A) and PsA synovium explants were incubated with CRH (10^−8 M) and examined for its ability to induce expression of NURR1 and NUR77 transcripts. […] Furthermore, analysis of synovium explants indicates higher endogenous and CRH-inducible NURR1 mRNA compared to NUR77 transcript levels.
as §1, §2, §4

[5] = test system: synoviocytes; experiment: Synoviocyte morphological transformation (fibroblast-like to stellate); settings: primary PsA synoviocytes, untreated vs TNFα

Compound	NURR1 mRNA levels after stimulation [1]	effect in stimulating NURR1 mRNA compared with the other agonists ([1]; PGE2 1 μM, 10^-6 M)	NOR1 mRNA expression levels [2]	binding of nuclear protein complexes with the CRH NBRE [3]	NURR1 mRNA induction in synovium explants [4]	synoviocyte morphology after stimulation [5]
CCCCC[C@H](O)/C=C/[C@H]1[C@H](O)CC(=O)[C@@H]1C/C=C\CCCC(=O)O [PGE2, reference compound]	rapid and marked increase	most potent and sustained effect	only a moderate increase	significant increased binding	–	–
IL-1β: pro-inflammatory cytokine	rapid and marked increase	–	–	significant increased binding	–	–
IL-6: pro-inflammatory cytokine	did not significantly induce	–	–	–	rapid and marked increase	–
TNFα	rapid and marked increase; also recorded: increased	–	increased	significant increased binding	–	stellate shape
